# Results: patent publication US9976142B2, “Targeting molecule and a use thereof” (Nitto Denko Corporation, priority 2014, dated 2018)
# Square brackets hold non-standard residues; d marks the D form. Ends that are not written are not given here.
# System: rat hepatic stellate cells (HSCs)
# Test: siRNA introduction into rat hepatic stellate cells with targeting molecule/LipoTrust/siRNA lipoplex; HSP47 expression by quantitative PCR
# Format: cell-based
# Details: siRNA 11.5 μg/ml; for extent of the suppression of the expression of HSP47 gene, compared with RBP Loop 1: FIG. 3; for extent of the suppression of the expression of HSP47 gene, compared with RBP Loop 1 / expression rate of HSP47 gene: peptide 7.7 μM; for suppression of HSP47 expression: peptide stock solutions 1.1-10 mM; for HSP47 expression rate (%): FIG. 2, HSP47 relative to GAPDH, untreated cell = 100; for expression rate of HSP47 gene: FIG. 5
# Protocol: LipoTrust™ SR was dissolved in nuclease-free water (Ambion, Cat. No. AM9937) at a concentration of 1 mM of the cationic lipid. 10 μl of this liposome solution was placed in an Eppendorf tube, to which added 1 μl of the stock solution of each peptide above dissolved in DMSO at predetermined concentration (1.1 mM, 1.25 mM, 2.5 mM, 3.4 mM, 5 mM or 10 mM for experiments whose results are shown in FIG. 1; 90 mM for experiments whose results are shown in FIG. 2) or the stock solution of vitamin A above, and the mixture was vortexed for 15 seconds. To this mixture, 1.5 μl of the above siRNA stock solution was added and mixed, then 17.5 μl of 5% glucose aq. solution (OTSUKA GLUCOSE INJECTION 5%, Otsuka Pharmaceutical Co., Ltd.) was added and mixed. Thus obtained solution of liposome-peptide (or vitamin A)-siRNA complex (lipoplex) was left still under shade for 15 min at room temperature. Also, a mixture of the peptide and siRNA without LipoTrust™ SR was prepared as a control.
# Two days before the siRNA introduction, hepatic stellate cells (HSCs) prepared from a rat liver according to the method of Schaefer et al. (Schaefer et al., Hepatology. 1987 July-August; 7(4):680-7) were inoculated uniformly onto a 6-well plate at a density of 0.2×10^5/well and cultured in a Dulbecco's modified Eagle's medium (D-MEM, Sigma Aldrich, Cat. No. D6546, hereinbelow referred to as “culture medium”) containing 10% fetal bovine serum (Thermo HyClone, Cat. No. SH30070.03), 2% L-glutamine (Sigma Aldrich, Cat. No. G7513) and 1% penicillin-streptomycin (Sigma Aldrich, Cat. No. G1146).
# The culture medium was removed, 900 μl of fresh culture medium was added to each well, and then this was incubated for at least 30 minutes at 37° C. To 30 μl of each lipoplex solution obtained in Example 1, 100 μl of 5% glucose solution was added to make a mixed solution of 130 μl, and 100 μl of said mixture was added to corresponding well. The final concentration of the siRNA at this time was 11.5 μg/ml. After incubating at 37° C., in 5% CO2 for 30 minutes, the medium comprising the lipoplex solution was removed and substituted with the culture medium, and this was cultured under normal condition for 24-36 hours.
# Total RNA extraction of each sample was carried out using RNeasy Mini kit (Qiagen). Firstly, the culture medium was removed, and 350 μl/well each of RLT/2ME solution which was prepared in advance by mixing RLT solution attached to RNeasy Mini kit with 1% (v/v) 2-mercaptoethanol (2ME, Wako) was dispensed into each well. Total volume of the cell lysate was homogenized with QIAshredder (Qiagen), centrifuged at 4° C. and 12000 rpm for 2 min, and then total RNA was extracted according to the manufacturer's instruction. The obtained RNA was quantified using NanoDrop 2000 (Thermo Fisher Scientific), and cDNA was synthesized by RT-PCR. 20 μl total volume/tube of the reaction solution consisting of 4 μl of the reverse transcriptase mix (Super Script VILO Master Mix, Invitrogen, 11755-250) and 16 μl of total RNA of each sample (containing 100-500 ng or more RNA) was reacted at 25° C. for 5 min, at 42° C. for 60 min, then at 85° C. for 5 min, respectively, and subsequently stored at 4° C.
# The suppression of HSP47 expression was analyzed by quantitative PCR. As a standard template, the untreated cell sample was used in 10-fold dilution series (the stock solution, 10- and 100-fold dilutions). To each well of MicroAmp (Optical 96-well Reaction Plate, Applied Biosystems, Cat. No. 4306737) added a 48 μl premix consisting of 22 μl of sterile water, 25 μl of Power SYBR® Green (Applied Biosystems, Cat. No. 4367669) and 1 μl of primer mix. The primer mix comprises 50 μM each of the primer set against HSP47 or GAPDH, an internal standard gene, as shown below:
# To the corresponding well, 2 μl of the template cDNA obtained from each sample was added to make a total volume of 50 μl. […]
# [1] = each peptide at final concentration 69.2 μM, smaller value = greater suppression
compound,measurement,setting,value
AKEDPKGLFLQDNI (Variant peptide E3K6) [Mutant peptide 1],"extent of the suppression of the expression of HSP47 gene, compared with RBP Loop 1",,lower
AKKDPEGLFLQDNI (Synthetic RBP loop 1),suppression of HSP47 expression,FIG. 1,concentration-dependent suppression of HSP47 expression
same,"suppression rate by the complex, compared with vitamin A",FIG. 1,comparable to that by vitamin A
same,HSP47 expression rate (%),[1],49.0%
same,expression rate of HSP47 gene,,significantly decreased
AKKDPEGLFLQDN (Peptide No. 10-1),HSP47 expression rate (%),[1],39.3%
AKDDPEGLFLQKNI (Variant peptide D3K12) [Mutant peptide 3],"extent of the suppression of the expression of HSP47 gene, compared with RBP Loop 1",,lower
KKDPEGLFLQD (Peptide No. 10-5),HSP47 expression rate (%),[1],40.4%
AKGRVRLLNNWDVCA (Synthetic RBP loop 2),suppression of HSP47 expression,FIG. 1,concentration-dependent suppression of HSP47 expression
KDPEGLFLQDNI (Peptide No. 10-4),HSP47 expression rate (%),[1],42.9%
"AKFQKLEPGDDLNI (Scramble peptide) [scrambled peptide, negative control, reference compound]",expression rate of HSP47 gene,,almost the same as the result in the group using no targeting molecule
AKKDPEGLFLQD (Peptide No. 10-2),HSP47 expression rate (%),[1],48.5%
KKDPEGLFLQDNI (Peptide No. 10-3),HSP47 expression rate (%),[1],31.2%
AKDKPEGLFLQDNI (Variant peptide D3K4) [Mutant peptide 2],"extent of the suppression of the expression of HSP47 gene, compared with RBP Loop 1",,lower
"CC1=C(/C=C/C(C)=C/C=C/C(C)=C/CO)C(C)(C)CCC1 [VA, all-trans-retinol, reference compound]",HSP47 expression rate (%),VA at final concentration 7.7 μM,46.8%
d-INDQLFLGEPDKKA-amide ([dI][dN][dD][dQ][dL][dF][dL]G[dE][dP][dD][dK][dK][dA]-NH2; N-terminus assumed; SMILES CC[C@@H](C)[C@@H](N)C(=O)N[C@H](CC(N)=O)C(=O)N[C@H](CC(=O)O)C(=O)N[C@H](CCC(N)=O)C(=O)N[C@H](CC(C)C)C(=O)N[C@H](Cc1ccccc1)C(=O)N[C@H](CC(C)C)C(=O)NCC(=O)N[C@H](CCC(=O)O)C(=O)N1CCC[C@@H]1C(=O)N[C@H](CC(=O)O)C(=O)N[C@H](CCCCN)C(=O)N[C@H](CCCCN)C(=O)N[C@H](C)C(N)=O) [retro-inverso peptide],targetability (suppression of HSP47),"FIG. 4, peptide 23.1 μM",almost the same targetability as that of RBP Loop 1
KDPEGLFLQD (Peptide No. 10),HSP47 expression rate (%),[1],57.2%
KDPEGLFLQDN (Peptide No. 10-6),HSP47 expression rate (%),[1],44.3%
